In the NIST ThermoML archive (doi:10.1016/j.jct.2018.11.004):
Numbers after ± are expanded uncertainties.

Test: molar heat capacity at saturation pressure
Details: Small (less than 1 g) adiabatic calorimetry

CC(C)[C@@H]1CC[C@@H](C)C[C@H]1O [L-menthol]
Details | molar heat capacity [J/K/mol]
213.42 K, Crystal 1 | 178.9 ± 1
215.24 K, Crystal 1 | 180.2 ± 1
216.36 K, Crystal 1 | 180.9 ± 1
217.07 K, Crystal 1 | 181.5 ± 1
218.32 K, Crystal 1 | 182.5 ± 1
218.89 K, Crystal 1 | 182.9 ± 1
220.14 K, Crystal 1 | 183.7 ± 1
220.72 K, Crystal 1 | 184.2 ± 1
221.96 K, Crystal 1 | 185.1 ± 1
222.55 K, Crystal 1 | 185.4 ± 1
223.78 K, Crystal 1 | 186.5 ± 1
225.6 K, Crystal 1 | 187.8 ± 1
227.43 K, Crystal 1 | 189.1 ± 1
229.25 K, Crystal 1 | 190.5 ± 1
231.07 K, Crystal 1 | 191.9 ± 1
232.89 K, Crystal 1 | 193.3 ± 1
234.71 K, Crystal 1 | 194.7 ± 1
236.53 K, Crystal 1 | 196.1 ± 1.1
238.35 K, Crystal 1 | 197.4 ± 1.1
240.18 K, Crystal 1 | 198.8 ± 1.1
242 K, Crystal 1 | 200.2 ± 1.1
243.83 K, Crystal 1 | 201.7 ± 1.1
245.65 K, Crystal 1 | 203.1 ± 1.1
247.48 K, Crystal 1 | 204.5 ± 1.1
249.3 K, Crystal 1 | 206 ± 1.1
251.12 K, Crystal 1 | 207.5 ± 1.1
252.95 K, Crystal 1 | 208.9 ± 1.1
254.77 K, Crystal 1 | 210.4 ± 1.1
256.59 K, Crystal 1 | 212 ± 1.1
258.41 K, Crystal 1 | 213.7 ± 1.1
260.23 K, Crystal 1 | 215.2 ± 1.1
262.05 K, Crystal 1 | 216.8 ± 1.2
263.88 K, Crystal 1 | 218.5 ± 1.2
265.7 K, Crystal 1 | 220.1 ± 1.2
267.52 K, Crystal 1 | 221.7 ± 1.2
269.34 K, Crystal 1 | 223.4 ± 1.2
271.17 K, Crystal 1 | 225.1 ± 1.2
272.99 K, Crystal 1 | 226.5 ± 1.2
274.82 K, Crystal 1 | 227.9 ± 1.2
276.64 K, Crystal 1 | 229.6 ± 1.2
278.46 K, Crystal 1 | 231.1 ± 1.2
278.81 K, Crystal 1 | 231.4 ± 1.2
280.29 K, Crystal 1 | 232.6 ± 1.2
280.63 K, Crystal 1 | 233 ± 1.2
282.11 K, Crystal 1 | 234.2 ± 1.2
282.45 K, Crystal 1 | 234.5 ± 1.2
283.93 K, Crystal 1 | 235.8 ± 1.2
284.26 K, Crystal 1 | 236.1 ± 1.2
285.75 K, Crystal 1 | 237.3 ± 1.3
286.08 K, Crystal 1 | 237.7 ± 1.3
287.57 K, Crystal 1 | 239 ± 1.3
287.88 K, Crystal 1 | 239.5 ± 1.3
289.39 K, Crystal 1 | 240.8 ± 1.3
289.68 K, Crystal 1 | 241.3 ± 1.3
290.89 K, Crystal 1 | 242.4 ± 1.3
291.08 K, Crystal 1 | 242.5 ± 1.3
291.22 K, Crystal 1 | 242.6 ± 1.3
291.47 K, Crystal 1 | 242.9 ± 1.3
291.8 K, Crystal 1 | 243.3 ± 1.3
292.76 K, Crystal 1 | 244.5 ± 1.3
293.04 K, Crystal 1 | 244.4 ± 1.3
293.06 K, Crystal 1 | 244.7 ± 1.3
293.25 K, Crystal 1 | 244.8 ± 1.3
293.66 K, Crystal 1 | 245.4 ± 1.3
294.53 K, Crystal 1 | 246.2 ± 1.3
294.86 K, Crystal 1 | 246.6 ± 1.3
294.94 K, Crystal 1 | 246.6 ± 1.3
295.02 K, Crystal 1 | 246.7 ± 1.3
295.44 K, Crystal 1 | 247.2 ± 1.3
296.68 K, Crystal 1 | 248.4 ± 1.3
296.79 K, Crystal 1 | 248.6 ± 1.3
296.82 K, Crystal 1 | 248.6 ± 1.3
298.5 K, Crystal 1 | 250.6 ± 1.3
298.55 K, Crystal 1 | 250.5 ± 1.3
298.69 K, Crystal 1 | 250.9 ± 1.3
312.2 K, Liquid | 370.6 ± 1.9
314.15 K, Liquid | 373.6 ± 1.9
316.02 K, Liquid | 376.5 ± 1.9
317.57 K, Liquid | 379.5 ± 1.9
317.87 K, Liquid | 379.7 ± 1.9
318.1 K, Liquid | 380.3 ± 1.9
318.47 K, Liquid | 380.7 ± 2
318.82 K, Liquid | 381.4 ± 2
319.28 K, Liquid | 381.8 ± 2
319.72 K, Liquid | 382.6 ± 2
320.06 K, Liquid | 383.3 ± 2
320.34 K, Liquid | 383.5 ± 2
320.78 K, Liquid | 384.6 ± 2
321.01 K, Liquid | 384.9 ± 2
321.31 K, Liquid | 385.3 ± 2
321.56 K, Liquid | 385.4 ± 2
322.18 K, Liquid | 386.6 ± 2
322.55 K, Liquid | 386.9 ± 2
323.31 K, Liquid | 388.4 ± 2
323.4 K, Liquid | 388.2 ± 2
323.45 K, Liquid | 388.5 ± 2
323.79 K, Liquid | 388.8 ± 2
324.01 K, Liquid | 389.3 ± 2
325.28 K, Liquid | 391.1 ± 2
325.83 K, Liquid | 392 ± 2
325.85 K, Liquid | 392.2 ± 2
327.12 K, Liquid | 393.8 ± 2
327.67 K, Liquid | 394.8 ± 2
328.34 K, Liquid | 395.8 ± 2
328.95 K, Liquid | 396.4 ± 2
329.49 K, Liquid | 397.5 ± 2
330.79 K, Liquid | 399.1 ± 2
330.84 K, Liquid | 399.3 ± 2
331.3 K, Liquid | 400.1 ± 2
332.62 K, Liquid | 401.7 ± 2.1
333.11 K, Liquid | 402.5 ± 2.1
333.33 K, Liquid | 402.6 ± 2.1
334.46 K, Liquid | 404.2 ± 2.1
335.81 K, Liquid | 406 ± 2.1
336.3 K, Liquid | 406.5 ± 2.1
338.14 K, Liquid | 408.8 ± 2.1
338.29 K, Liquid | 409 ± 2.1
339.98 K, Liquid | 411.3 ± 2.1
340.77 K, Liquid | 412.1 ± 2.1
341.82 K, Liquid | 413.4 ± 2.1
343.25 K, Liquid | 415.1 ± 2.1
343.66 K, Liquid | 415.8 ± 2.1
345.5 K, Liquid | 417.9 ± 2.1
345.72 K, Liquid | 418.1 ± 2.1
347.35 K, Liquid | 419.8 ± 2.1
348.2 K, Liquid | 420.7 ± 2.1
349.19 K, Liquid | 421.7 ± 2.2
350.66 K, Liquid | 423 ± 2.2
351.04 K, Liquid | 423.4 ± 2.2
352.88 K, Liquid | 425.1 ± 2.2
353.12 K, Liquid | 425.1 ± 2.2
354.73 K, Liquid | 426.7 ± 2.2
355.58 K, Liquid | 427.2 ± 2.2
356.58 K, Liquid | 428.4 ± 2.2
358.04 K, Liquid | 429.4 ± 2.2
358.43 K, Liquid | 429.7 ± 2.2
360.27 K, Liquid | 431.1 ± 2.2
360.49 K, Liquid | 431 ± 2.2
362.12 K, Liquid | 432.6 ± 2.2
362.94 K, Liquid | 432.8 ± 2.2
363.97 K, Liquid | 433.8 ± 2.2
365.39 K, Liquid | 434.2 ± 2.2
365.82 K, Liquid | 435.5 ± 2.2
367.67 K, Liquid | 436.2 ± 2.2
367.84 K, Liquid | 435.7 ± 2.2
